# Data from ChEMBL document CHEMBL1795238, “Structure-brain exposure relationships in rat and human using a novel data set of unbound drug concentrations in brain interstitial and cerebrospinal fluids” (J Med Chem, 2009).
# Tests used:
# Brain = conditions: rat, in vivo, iv, 4 h
# in vivo [1] = conditions: Sprague-Dawley, rat, iv, 2 (umol/kg)/hr
# in vitro = conditions: Sprague-Dawley, rat, plasma, iv, 2 (umol/kg)/hr
# Plasma [2] = conditions: rat, iv, 4 h
# in vivo [3] = conditions: Sprague-Dawley, rat, iv, 2 (umol/kg)/hr; remark: listed apart in the source
# clinical = conditions: human, CSF and plasma
# [4] = rat, brain, iv, 4 h
# in vivo [5] = conditions: Sprague-Dawley, rat, iv, 2 (umol/kg)/hr; remark: listed apart in the source
# Plasma [6] = conditions: rat, iv, 4 h; remark: listed apart in the source
SMILES,Vdu (Brain),Kp uu at 4 h (in vivo [1]; brain),fraction unbound at 4 h (in vitro),Cp(f) (Plasma [2]),Kp at 4 h (in vivo [3]; brain),Kp uu (clinical),Kp uu at 4 h (in vivo [1]; brain and plasma),BPR [4],Kp uu at 4 h (in vivo [5]; CSF and plasma),Kp uu at 4 h (in vivo [5]; csf),Kp at 4 h (in vivo [3]; brain and plasma),"BPR ([4]; Sprague-Dawley, 2 (umol/kg)/hr)",Fu (Plasma [6])
CC(C)(C)NC(=O)[C@@H]1C[C@@H]2CCCC[C@@H]2CN1C[C@@H](O)[C@H](Cc1ccccc1)NC(=O)[C@H](CC(N)=O)NC(=O)c1ccc2ccccc2n1,208 mL,0.055,0.007,3 nM,0.08,0.096,,,,,,,
Cc1c(O)cccc1C(=O)N[C@@H](CSc1ccccc1)[C@H](O)CN1C[C@H]2CCCC[C@H]2C[C@H]1C(=O)NC(C)(C)C,860 mL,,,1.9 nM,,0.045,0.019,0.04,0.067,,,,
COc1ccc(CCN(C)CCCC(C#N)(c2ccc(OC)c(OC)c2)C(C)C)cc1OC (stereo not given),,,,75 nM,,,,,,,,,
C=CCc1ccccc1OCC(O)CNC(C)C (stereo not given) [ALPRENOLOL],50 mL,0.38,0.44,280 nM,8.27,,,,,0.33,,,
CN(C)CCC=C1c2ccccc2CCc2ccccc21 [AMITRIPTYLINE],310 mL,,0.09,22 nM,,0.18,0.73,,0.17,,20.1,,
NCC(CC(=O)O)c1ccc(Cl)cc1 (stereo not given) [BACLOFEN],1.7 mL,,1,4200 nM,,0.17,0.02,,0.027,,0.03,,
CC(NC(C)(C)C)C(=O)c1cccc(Cl)c1 (stereo not given) [BUPROPION],16 mL,,0.31,79 nM,,2,2,,0.49,,9.78,,
COc1ccc2c3c1O[C@H]1[C@@H](O)C=C[C@H]4[C@@H](C2)N(C)CC[C@@]341 [CODEINE],3.2 mL,0.89,0.95,210 nM,2.7,0.79,,,,0.54,,,
CC(C)Nc1cccnc1N1CCN(C(=O)c2cc3cc(NS(C)(=O)=O)ccc3[nH]2)CC1 [DELAVIRDINE],40 mL,0.043,0.016,17 nM,0.03,0.23,,,,0.051,,,
NCC1(CC(=O)O)CCCCC1 [GABAPENTIN],4.6 mL,,1,5200 nM,,0.16,0.14,,0.067,,0.64,,
COc1ccc2c(c1)c(CC(=O)O)c(C)n2C(=O)c1ccc(Cl)cc1 [INDOMETHACIN],14 mL,0.11,0.01,200 nM,0.01,0.27,,,,0.17,,,
Nc1nnc(-c2cccc(Cl)c2Cl)c(N)n1 [LAMOTRIGINE],4.6 mL,0.88,0.51,1800 nM,,1.1,,,,0.86,,2.02,
C[C@H]1COc2c(N3CCN(C)CC3)c(F)cc3c(=O)c(C(=O)O)cn1c23.C[C@H]1COc2c(N3CCN(C)CC3)c(F)cc3c(=O)c(C(=O)O)cn1c23.O [LEVOFLOXACIN],1.7 mL,,0.82,590 nM,,0.18,0.12,,0.19,,0.17,,
CN(C)C(=O)C(CCN1CCC(O)(c2ccc(Cl)cc2)CC1)(c1ccccc1)c1ccccc1 [LOPERAMIDE],370 mL,,0.06,54 nM,,,0.007,,0.037,,0.15,,
CN(Cc1cnc2nc(N)nc(N)c2n1)c1ccc(C(=O)N[C@@H](CCC(=O)O)C(=O)O)cc1 [METHOTREXATE],0.68 mL,0.006,1,2900 nM,0.004,0.062,,,,0.007,,,
COCCc1ccc(OCC(O)CNC(C)C)cc1 (stereo not given) [METOPROLOL],,,0.9,750 nM,,,,,,,,,
CN1CC[C@]23c4c5ccc(O[C@@H]6O[C@H](C(=O)O)[C@@H](O)[C@H](O)[C@H]6O)c4O[C@H]2[C@@H](O)C=C[C@H]3[C@H]1C5 [MORPHINE 3-GLUCURONIDE],0.6 mL,,1,2700 nM,,0.081,0.011,,0.049,,0.007,,
CN1CC[C@]23c4c5ccc(O)c4O[C@H]2[C@@H](O[C@@H]2O[C@H](C(=O)O)[C@@H](O)[C@H](O)[C@H]2O)C=C[C@H]3[C@H]1C5 [MORPHINE GLUCURONIDE],0.99 mL,,0.98,2100 nM,,0.1,0.008,,0.017,,0.008,,
CO[C@@]1(NC(=O)C(C(=O)O)c2ccc(O)cc2)C(=O)N2C(C(=O)O)=C(CSc3nnnn3C)CO[C@@H]21 (stereo not given in full) [MOXALACTAM],0.57 mL,0.019,0.32,3800 nM,0.003,0.41,,,,0.02,,,

SMILES,Vdu (Brain),Kp uu at 4 h (in vivo [1]; brain),fraction unbound at 4 h (in vitro),Cp(f) (Plasma [2]),Kp at 4 h (in vivo [3]; brain),Kp uu (clinical),Kp uu at 4 h (in vivo [1]; brain and plasma),BPR [4],Kp uu at 4 h (in vivo [5]; CSF and plasma),Kp uu at 4 h (in vivo [5]; csf),Kp at 4 h (in vivo [3]; brain and plasma),"BPR ([4]; Sprague-Dawley, 2 (umol/kg)/hr)",Fu (Plasma [6])
CC(C)(C)NCC(O)COc1cccc2c1CC(O)C(O)C2 (stereo not given) [NADOLOL],,,0.86,780 nM,,,,,,,,,
O=C1CN(/N=C/c2ccc([N+](=O)[O-])o2)C(=O)N1 [NITROFURANTOIN],1.6 mL,0.011,0.48,710 nM,0.008,,,,,0.0099,,,
CCn1cc(C(=O)O)c(=O)c2cc(F)c(N3CCNCC3)cc21 [NORFLOXACIN],2.9 mL,0.028,0.87,700 nM,0.07,0.11,,,,0.018,,,
C=CCOc1ccccc1OCC(O)CNC(C)C (stereo not given) [OXPRENOLOL],11.8 mL,0.2,0.45,210 nM,1.06,,,,,0.1,,,
COc1ccc2c3c1O[C@H]1C(=O)CC[C@@]4(O)[C@@H](C2)N(C)CC[C@]314 [OXYCODONE],,,0.87,330 nM,,,,,,,,,
CN1CC[C@]23c4c5ccc(O)c4O[C@H]2C(=O)CC[C@@]3(O)[C@H]1C5 [OXYMORPHONE],4 mL,,0.73,240 nM,,,0.79,,0.91,,2.29,,
CCC(C(N)=O)(C(N)=O)c1ccccc1 [PHENYLETHYLMALONAMIDE],0.9 mL,,0.55,4300 nM,,,1.25,,1.4,,0.64,,
CC(C)NCC(O)COc1cccc2[nH]ccc12 (stereo not given) [PINDOLOL],,,0.43,160 nM,,0.52,0.5,,0.11,,1.56,,
CC(C)NCC(O)COc1cccc2ccccc12 (stereo not given) [PROPRANOLOL],118 mL,,0.09,51 nM,,0.42,0.61,,0.49,,6.59,,
CO[C@H]1/C=C/O[C@@]2(C)Oc3c(C)c(O)c4c(O)c(c(/C=N/N5CCN(C)CC5)c(O)c4c3C2=O)NC(=O)/C(C)=C\C=C\[C@H](C)[C@H](O)[C@@H](C)[C@@H](O)[C@@H](C)[C@H](OC(C)=O)[C@@H]1C [RIFAMPIN],,,0.12,830 nM,,,,,,,,,
O=C(O)c1ccccc1O [SALICYLIC ACID],1 mL,0.19,0.28,5600 nM,0.05,0.19,,,,0.16,,,
O=C(O)c1cc(/N=N/c2ccc(S(=O)(=O)Nc3ccccn3)cc2)ccc1O [SULFASALAZINE],,,0.005,13 nM,,,,,0.032,,,,
Nc1c2c(nc3ccccc13)CCCC2 [TACRINE],22 mL,0.78,0.55,120 nM,9.56,0.74,,,,0.67,,,
CCCC(C)C1(CC)C(=O)NC(=S)NC1=O (stereo not given) [THIOPENTAL],,,0.19,550 nM,,,,,,,,,
CSc1ccc2c(c1)N(CCC1CCCCN1C)c1ccccc1S2 (stereo not given) [THIORIDAZINE],3333 mL,0.45,,1.3 nM,3.75,1.4,,,,0.21,,,0.002
CC1(C)O[C@@H]2[C@@H](CO[C@@]3(COS(N)(=O)=O)OC(C)(C)O[C@@H]23)O1 [TOPIRAMATE],3.2 mL,,0.79,3400 nM,,1,0.33,,0.63,,0.84,,
COc1cccc(C2(O)CCCCC2CN(C)C)c1 (stereo not given) [TRAMADOL],4.2 mL,1.46,0.85,300 nM,5.29,1.44,,,,0.71,,,
Cc1cn([C@H]2C[C@H](N=[N+]=[N-])[C@@H](CO)O2)c(=O)[nH]c1=O [ZIDOVUDINE],,,0.64,1200 nM,,,,,,,,,
